“And” between values parts separate entries of the source, which are not always exact repeats. Equal values may be shown once. Read-outs that look alike come from different tables or passages of the source.
Tests used:
BCL-2 = biological target: T1, BCL-2 (Homo sapiens, UniProt P10415); assay: BCL-2 degradation by immunoblot in 293T cells; type: cell-based; settings: for DC50 / BCL-2 degradation (in words): 293T cells, 16 h; for normalized BCL-2 protein content at 1 µM / Dmax: HEK-293T; for normalized BCL-2 protein content at 1 µM: 293T, 1 μM 753b, Fig. 3d
T1 construct: endogenous in cells
Protocol: The DC50 and Dmax were calculated using Prism based on the ImageJ-quantified western blots in Supplementary Fig. 4. c, d AlphaLISA assay to determine the formation of BCL-xL/PROTAC/VHL-ELOC-ELOB (VCB) (c) or BCL-2/PROTAC/VCB (d) ternary complex in a cell-free condition. Data represent the mean of a single experiment with 2 technical replicates. Similar results were obtained in one more independent experiment. e, f NanoBRET assays evaluating intracellular BCL-xL/PROTAC/VCB (e) or BCL-2/PROTAC/VCB (f) ternary complex formation. […] Data are expressed as mean ± s.e.m. of three biological replicates. Source data are provided as a Source data file.
Representative immunoblots are shown in (a–d) and β-actin was used as a loading control in all immunoblot analyses. The normalized protein content in the immunoblots is presented as mean values ± s.e.m. (n = 3 biologically independent experiments) in the bar graph (bottom panel). e, f The formation of BCL-xL/PROTAC/VCB (e) and BCL-2/PROTAC/VCB (f) ternary complexes in a cell-free condition was determined by AlphaLISA assay. Data represent the mean of a single experiment with 2 technical replicates. […] Source data are provided as a Source data file.
Cells were collected, washed once with ice-cold phosphate-buffered saline, pH 7.2 (PBS, cat. no. 20012027; Thermo Fisher Scientific) and lysed in RIPA lysis buffer (Cat. No. BP-115DG, Boston Bio Products, Ashland, MA, USA) supplemented with protease and phosphatase inhibitor cocktails (Cat. No. PPC1010, Sigma-Aldrich, St. Louis, MO, USA) through sonication. The samples were centrifuged at 14,000 r.p.m. for 5 min and the supernatants were transferred into a new tube. The protein concentration in the supernatants was determined using the Pierce BCA protein Assay kit (cat. no. 23225, Thermo Fisher Scientific). The protein concentration was normalized, and the samples were reduced in 4× Laemmli’s SDS-sample buffer (cat. no. BP-110R, Boston Bio Products) and denatured at 95 °C for 5 min. An equal amount of protein samples (20–40 μg per lane) were resolved using precast 4–20% Tris-glycine gels (Mini-PROTEAN TGX, cat. no. 456–1094, Bio-Rad), and resolved proteins were transferred onto 0.2-µm pore size polyvinylidene difluoride (PVDF) blotting membranes (cat. no. LC2002, Thermo Fisher Scientific) using mini trans-blot electrophoretic transfer cell (Bio-Rad). The membranes were blocked with non-fat dry milk (5% wt/vol) in 1× Tris-buffered saline-Tween-20 (TBST, cat. no. J77500, Affymetrix) for 1 h at room temperature, and were subsequently probed with primary antibodies at a predetermined optimal concentration in non-fat dry milk (5% wt/vol in TBST) overnight at 4 °C. The membranes were washed three times (5 min each) in TBST and then incubated with horse radish peroxidase (HRP)-conjugated secondary antibodies for 1 h at room temperature. Following sufficient washing with TBST, the membranes were exposed with chemiluminescent HRP substrate (cat. no. WBKLS0500, MilliporeSigma), and the signal was detected using the ChemiDoc MP Imaging System (Bio-Rad) and quantified using the ImageJ (v1.53a) software from NIH.

[1] = biological target: T2, BCL-2/PROTAC/VCB ternary complex (Homo sapiens, UniProt P10415+P40337); assay: AlphaLISA ternary complex formation, cell-free, BCL-2; type: binding; settings: for in vitro ternary complex formation with BCL-2 (in words): AlphaLISA, cell-free, Fig. 2d, 3f; for Alpha (Alpha Endpoint read, Bcl-2 ternary complex formation): raw plate signal, duplicate wells; for AlphaLISA signal, BCL-2/PROTAC/VCB: Fig. 2d raw Alpha reads
T2 construct: pGEX-6P-1-VHL(54-213) (pDL2200) was constructed through Gibson assembly method; made in house; host or cells: bacterial culture (LB broth, IPTG induction)
Protocol: AlphaLISA assay was used to evaluate the in vitro ternary complex formation between target proteins (BCL-xL or BCL-2), PROTAC and E3 ligase (VCB complex). In each well, 5 nM His-tagged BCL-xL or BCL-2 proteins and 5 nM GST-VCB complex was incubated with varying concentrations of compounds in fourfold serial dilutions, to a final volume of 40 µl in a 96-well PCR plate. After incubation at room temperature for 30 min, 5 µl alpha glutathione-donor beads (Cat. No. 6765300, PerkinElmer) were added to each well (20 µg/ml final concentration) and incubated for another 15 min. Thereafter, 5 µL 6× His-acceptor beads were added to each well (20 µg/ml final concentration) and incubated for an additional 45 min at room temperature. Thereafter, 17 µl of each sample was transferred in adjacent wells of a 384-well proxy plate, and the plate was scanned using the Alpha program on Biotek’s Synergy Neo2 multimode plate reader. The data were expressed as average AlphaLISA signal and plotted against different concentrations of compounds using GraphPad Prism 9 software.

[2] = compound 200000 nM, 2 technical replicates

T2 sequence (P10415 1-211 limits assumed): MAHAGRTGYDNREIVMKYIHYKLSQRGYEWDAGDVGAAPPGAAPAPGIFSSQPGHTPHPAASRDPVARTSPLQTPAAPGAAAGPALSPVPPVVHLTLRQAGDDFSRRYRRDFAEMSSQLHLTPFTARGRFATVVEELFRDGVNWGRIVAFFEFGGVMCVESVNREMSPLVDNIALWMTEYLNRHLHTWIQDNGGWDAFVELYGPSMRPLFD
T2 sequence (P40337 54-213 limits assumed): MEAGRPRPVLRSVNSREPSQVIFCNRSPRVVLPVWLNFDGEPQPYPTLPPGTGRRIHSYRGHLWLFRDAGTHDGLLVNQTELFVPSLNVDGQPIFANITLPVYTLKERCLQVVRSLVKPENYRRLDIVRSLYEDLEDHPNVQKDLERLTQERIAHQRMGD
T2 sequence (Q15369 17-112 partner limits assumed): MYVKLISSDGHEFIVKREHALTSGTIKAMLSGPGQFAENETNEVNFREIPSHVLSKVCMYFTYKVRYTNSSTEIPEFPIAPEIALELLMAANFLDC
T2 sequence (Q15370 whole entry partner): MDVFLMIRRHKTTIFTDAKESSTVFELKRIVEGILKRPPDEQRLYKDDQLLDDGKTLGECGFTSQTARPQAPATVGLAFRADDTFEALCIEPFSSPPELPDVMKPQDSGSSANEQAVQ
T1 sequence (P10415 whole entry): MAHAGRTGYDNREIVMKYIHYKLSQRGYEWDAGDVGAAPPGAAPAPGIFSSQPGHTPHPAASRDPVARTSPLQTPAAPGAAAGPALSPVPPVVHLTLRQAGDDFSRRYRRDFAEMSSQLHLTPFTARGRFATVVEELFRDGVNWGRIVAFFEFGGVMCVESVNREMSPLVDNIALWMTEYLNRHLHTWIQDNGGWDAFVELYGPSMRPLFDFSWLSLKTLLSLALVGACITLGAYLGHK

in vitro ternary complex formation with BCL-2 (in words) [1] | Dmax (BCL-2) [%] | AlphaLISA signal, BCL-2/PROTAC/VCB ([1]; compound 0.763 nM) | AlphaLISA signal, BCL-2/PROTAC/VCB ([1]; compound 3.052 nM) | AlphaLISA signal, BCL-2/PROTAC/VCB ([1]; compound 12.207 nM) | AlphaLISA signal, BCL-2/PROTAC/VCB ([1]; compound 48.828 nM) | AlphaLISA signal, BCL-2/PROTAC/VCB ([1]; compound 195.31 nM) | AlphaLISA signal, BCL-2/PROTAC/VCB ([1]; compound 781.25 nM) | AlphaLISA signal, BCL-2/PROTAC/VCB ([1]; compound 3125 nM) | AlphaLISA signal, BCL-2/PROTAC/VCB ([1]; compound 12500 nM) | AlphaLISA signal, BCL-2/PROTAC/VCB ([1]; compound 50000 nM) | AlphaLISA signal, BCL-2/PROTAC/VCB [1, 2] | SMILES | Alpha (Alpha Endpoint read, Bcl-2 ternary complex formation) ([1]; Conc. 0.0762939 nM) | Alpha (Alpha Endpoint read, Bcl-2 ternary complex formation) ([1]; Conc. 0.305176 nM) | Alpha (Alpha Endpoint read, Bcl-2 ternary complex formation) ([1]; Conc. 1.2207 nM) | Alpha (Alpha Endpoint read, Bcl-2 ternary complex formation) ([1]; Conc. 4.88281 nM) | Alpha (Alpha Endpoint read, Bcl-2 ternary complex formation) ([1]; Conc. 19.5312 nM) | Alpha (Alpha Endpoint read, Bcl-2 ternary complex formation) ([1]; Conc. 78.125 nM) | Alpha (Alpha Endpoint read, Bcl-2 ternary complex formation) ([1]; Conc. 312.5 nM) | Alpha (Alpha Endpoint read, Bcl-2 ternary complex formation) ([1]; Conc. 1250 nM) | also measured
 | 0 | 15170 and 18328 | 22062 and 18311 | 69812 and 70261 | 478226 and 503248 | 862665 and 765838 | 770133 and 699715 | 392514 and 467832 | 47038 and 50161 | 7988 and 8322 | 7003 and 7472 | Cc1ncsc1-c1ccc([C@H](C)NC(=O)[C@@H]2C[C@@H](O)CN2C(=O)[C@@H](NC(=O)CCCCCC(=O)N2CCN(CC[C@H](CSc3ccccc3)Nc3ccc(S(=O)(=O)NC(=O)c4ccc(N5CCN(CC6=C(c7ccc(Cl)cc7)CCC(C)(C)C6)CC5)cc4)cc3S(=O)(=O)C(F)(F)F)CC2)C(C)(C)C)cc1 [DT2216] | 20813 and 18426 | 25167 and 44180 | 134706 and 124477 | 167974 and 147424 | 637139 and 671757 | 1569627 and 1815622 | 1851330 and 1734079 | 970107 and 1023464 | BCL-2 degradation (in words) (BCL-2): did not induce BCL-2 degradation; Alpha (Alpha Endpoint read, Bcl-2 ternary complex formation) ([1]; Conc. 5000 nM): 185911 and 171854; Alpha (Alpha Endpoint read, Bcl-2 ternary complex formation) ([1]; Conc. 20000 nM): 15128 and 13041; AlphaLISA signal, BCL-2/PROTAC/VCB ([1]; compound 0.191 nM): 15777 and 15419
stronger ternary complexes | 47 | 18031 and 17435 | 30431 and 31755 | 272991 and 264284 | 1222232 and 1254048 | 1139558 and 1151559 | 1076543 and 1153682 | 286448 and 313784 | 33420 and 31990 | 13658 and 13269 | 8289 and 7903 | Cc1ncsc1-c1ccc([C@H](C)NC(=O)[C@@H]2C[C@@H](O)CN2C(=O)[C@@H](NC(=O)CCCCC(=O)N2CCN(CC3(C)CCC(c4ccc(Cl)cc4)=C(CN4CCN(c5ccc(C(=O)NS(=O)(=O)c6ccc(N[C@H](CCN7CCOCC7)CSc7ccccc7)c(S(=O)(=O)C(F)(F)F)c6)cc5)CC4)C3)CC2)C(C)(C)C)cc1 (stereo partly drawn) [PPC6] |  |  |  |  |  |  |  |  | AlphaLISA signal, BCL-2/PROTAC/VCB ([1]; compound 0.191 nM): 16425 and 15906
stronger ternary complexes | 79 | 20141 and 15109 | 29796 and 29041 | 146984 and 135341 | 1032585 and 1008497 | 1592216 and 1719187 | 1513830 and 1470142 | 403994 and 403317 | 43692 and 35758 | 12115 and 13570 | 14257 and 11084 | Cc1ncsc1-c1ccc([C@H](C)NC(=O)[C@@H]2C[C@@H](O)CN2C(=O)[C@@H](NC(=O)CCCCCC(=O)N2CCN(CC3(C)CCC(c4ccc(Cl)cc4)=C(CN4CCN(c5ccc(C(=O)NS(=O)(=O)c6ccc(N[C@H](CCN7CCOCC7)CSc7ccccc7)c(S(=O)(=O)C(F)(F)F)c6)cc5)CC4)C3)CC2)C(C)(C)C)cc1 (stereo partly drawn) [PPC7] |  |  |  |  |  |  |  |  | BCL-2 degradation (in words) (BCL-2): also degraded BCL-2; DC50 (BCL-2; four concentrations, Fig. 2b, read-out: BCL-2 DC50): 180 nM

SMILES | in vitro ternary complex formation with BCL-2 (in words) [1] | Dmax (BCL-2) [%] | AlphaLISA signal, BCL-2/PROTAC/VCB ([1]; compound 0.763 nM) | AlphaLISA signal, BCL-2/PROTAC/VCB ([1]; compound 3.052 nM) | AlphaLISA signal, BCL-2/PROTAC/VCB ([1]; compound 12.207 nM) | AlphaLISA signal, BCL-2/PROTAC/VCB ([1]; compound 48.828 nM) | AlphaLISA signal, BCL-2/PROTAC/VCB ([1]; compound 195.31 nM) | AlphaLISA signal, BCL-2/PROTAC/VCB ([1]; compound 781.25 nM) | AlphaLISA signal, BCL-2/PROTAC/VCB ([1]; compound 3125 nM) | AlphaLISA signal, BCL-2/PROTAC/VCB ([1]; compound 12500 nM) | AlphaLISA signal, BCL-2/PROTAC/VCB ([1]; compound 50000 nM) | AlphaLISA signal, BCL-2/PROTAC/VCB [1, 2] | Alpha (Alpha Endpoint read, Bcl-2 ternary complex formation) ([1]; Conc. 0.0762939 nM) | Alpha (Alpha Endpoint read, Bcl-2 ternary complex formation) ([1]; Conc. 0.305176 nM) | Alpha (Alpha Endpoint read, Bcl-2 ternary complex formation) ([1]; Conc. 1.2207 nM) | Alpha (Alpha Endpoint read, Bcl-2 ternary complex formation) ([1]; Conc. 4.88281 nM) | Alpha (Alpha Endpoint read, Bcl-2 ternary complex formation) ([1]; Conc. 19.5312 nM) | Alpha (Alpha Endpoint read, Bcl-2 ternary complex formation) ([1]; Conc. 78.125 nM) | Alpha (Alpha Endpoint read, Bcl-2 ternary complex formation) ([1]; Conc. 312.5 nM) | Alpha (Alpha Endpoint read, Bcl-2 ternary complex formation) ([1]; Conc. 1250 nM) | also measured
Cc1ncsc1-c1ccc([C@H](C)NC(=O)[C@@H]2C[C@@H](O)CN2C(=O)[C@@H](NC(=O)CCCCCCC(=O)N2CCN(C[C@]3(C)CCC(c4ccc(Cl)cc4)=C(CN4CCN(c5ccc(C(=O)NS(=O)(=O)c6ccc(N[C@H](CCN7CCOCC7)CSc7ccccc7)c(S(=O)(=O)C(F)(F)F)c6)cc5)CC4)C3)CC2)C(C)(C)C)cc1 [753b] | stronger ternary complexes with BCL-xL/2 than those by 753a and DT2216 |  |  |  |  |  |  |  |  |  |  |  | 175483 and 157446 | 174555 and 132830 | 345223 and 378556 | 1458903 and 1528033 | 3478424 and 3254843 | 2950431 and 3084677 | 1886162 and 2006989 | 474662 and 509499 | DC50 (BCL-2; Fig. 3c, read-out: DC50 in degrading BCL-2): 48 nM; normalized BCL-2 protein content at 1 µM (BCL-2; time point 1 (unit inferred), time 0 = 100, 3 replicates): 99%; normalized BCL-2 protein content at 1 µM (BCL-2; time point 3): 75%; normalized BCL-2 protein content at 1 µM (BCL-2; time point 6): 54%; normalized BCL-2 protein content at 1 µM (BCL-2; time point 12): 18%; normalized BCL-2 protein content at 1 µM (BCL-2; time point 16): 4%; normalized BCL-2 protein content at 1 µM (BCL-2; time point 24): 3%; normalized BCL-2 protein content at 1 µM (BCL-2; time point 36): 2%; Alpha (Alpha Endpoint read, Bcl-2 ternary complex formation) ([1]; Conc. 5000 nM): 83238 and 74082; Alpha (Alpha Endpoint read, Bcl-2 ternary complex formation) ([1]; Conc. 20000 nM): 44557 and 25949
